# Data reported in publication PMC5669903.
# Several values for one entry are separate records, joined by “and”; a condition that tells them apart may be missing. Equal entries are not always repeated. Where two headings read alike, the source gives them in different places.
# Key:
# TMV CP mutant [1] = target: T1, TMV CP mutant (Tobacco mosaic virus, UniProt P69687, R72G/S16G/S50G/Y73G); format: binding; conditions: ITC, one-set-of-sites model; 5 mM compounds and 0.5 mM TMV CP
# T1 construct: 6×His; made in house
# Mutant CP Discs = target: T2, Mutant CP Discs (Tobacco mosaic virus, UniProt P69687, R72G/S16G/S50G/Y73G); experiment: biochemical; format: binding; conditions: MST, 20°C
# T2 construct: 6×His; made in house
# TMV CP discs [2] = target: T3, TMV CP discs (Tobacco mosaic virus, UniProt P69687); experiment: biochemical; format: binding
# T3 construct: 6×His (N, cleaved yes); made in house; host or cells: Escherichia coli BL21 (DE3)-plysS, pET28a
# TMV CP mutant [3] = target: T1, TMV CP mutant; format: binding; conditions: fluorescence spectrum; 5 mM compounds and 0.5 mM TMV CP; read-out: Kd mutant (Fluo.)
# TMV CP discs [4] = target: T3, TMV CP discs; format: binding; conditions: for Kd: 20°C
# Text: We next determined the affinity between CP and NNM using two other independent methods, fluorescence spectrum and ITC.
# TMV = experiment: Curative activity against TMV, half leaf; format: in vivo, Tobacco mosaic virus; conditions: for Curative activity against TMV: half leaf
# TMV CP monomer = TMV CP monomer (Tobacco mosaic virus, UniProt P69687); experiment: biochemical; conditions: Kd to CP monomer
# TMV particles = experiment: MST binding of NNM to TMV particles; design: species or system Tobacco mosaic virus
# mutant TMV CP monomer = target: T4, mutant TMV CP monomer (Tobacco mosaic virus, UniProt P69687, R72G/S16G/S50G/Y73G); experiment: biochemical; format: binding; conditions: Kd to mutant CP monomer, MST, 20°C
# T4 construct: 6×His; made in house
# TMV RNA = experiment: ITC binding of NNM to TMV RNA; design: species or system Tobacco mosaic virus; conditions: 20°C
# [5] = target: wt CP four-layer aggregate discs (Tobacco mosaic virus, UniProt P69687); experiment: Disassembly of wt CP discs (isolated from TMV particles) by SEC
# [6] = target: recombinant TMV CP four-layer aggregate discs (Tobacco mosaic virus, UniProt P69687); experiment: Disassembly of recombinant TMV CP discs by SEC and TEM
# mutated CP discs = mutated CP discs (Tobacco mosaic virus, UniProt P69687, R72G/S16G/S50G/Y73G); experiment: Disassembly of mutated CP discs by SEC and TEM; format: biochemical; conditions: 1:20 (CP discs:NNM) ratio
# TMV CP replication = experiment: Leaf disc method with western blot of TMV CP
# Sequence of recombinant TMV CP four-layer aggregate discs (P69687 whole entry): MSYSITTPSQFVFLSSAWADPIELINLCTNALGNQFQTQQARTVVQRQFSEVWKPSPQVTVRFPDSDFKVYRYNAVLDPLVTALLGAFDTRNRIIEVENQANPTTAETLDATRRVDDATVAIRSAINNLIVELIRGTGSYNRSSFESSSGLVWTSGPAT
# Sequence of TMV CP monomer (P69687 whole entry): as above
# T3 sequence (P69687 whole entry): as above
# T2 sequence (P69687 whole entry S16G/S50G/R72G/Y73G): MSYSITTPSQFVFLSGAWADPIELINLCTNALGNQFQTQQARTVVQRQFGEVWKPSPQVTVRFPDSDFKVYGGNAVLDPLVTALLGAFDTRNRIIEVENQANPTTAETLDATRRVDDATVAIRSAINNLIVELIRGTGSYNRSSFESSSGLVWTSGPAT
# Sequence of wt CP four-layer aggregate discs (P69687 whole entry): as the sequence (P69687 whole entry) above
# T1 sequence (P69687 whole entry S16G/S50G/R72G/Y73G): as the sequence (P69687 whole entry S16G/S50G/R72G/Y73G) above
# T4 sequence (P69687 whole entry S16G/S50G/R72G/Y73G): as above
# Sequence of mutated CP discs (P69687 whole entry R72G/S16G/S50G/Y73G, looked up): as the sequence (P69687 whole entry S16G/S50G/R72G/Y73G) above
molecule,measurement,setting,value
Cytosinpeptidemycin,Kd,TMV CP mutant [1],33 µM
same,Kd to mutant CP discs,Mutant CP Discs,No binding
same,Kd to mutant CP discs,Mutant CP Discs; listed as cytosinpeptidemycin,no binding
same,Kd,"TMV CP discs [2]; MST, 20°C, read-out: Kd to TMV CP discs",4.84 µM
same,Kd,TMV CP mutant [3],250 µM
same,Kd,"TMV CP discs [4]; ITC, one-set-of-sites model",5.41 µM
same,Kd,"TMV CP discs [4]; fluorescence spectrum, read-out: Kd to TMV CP discs (Fluo.)",23.2 µM
same,Curative activity against TMV,TMV; 100 μg/mL,11.9%
same,Curative activity against TMV,TMV; 500 μg/mL,48.7%
same,anti-TMV activity in words,"TMV; 500 μg/mL, vivo experiment",significant anti-TMV activities
"CNCC(=O)N[C@@H](CO)C(=O)N[C@H]1[C@H](O)[C@@H](O)[C@H](n2ccc(N)nc2=O)O[C@@H]1C(N)=O [NNM, Ningnanmycin]",Kd,TMV CP monomer,18.6 µM and ~18.6 µM
same,Kd,TMV particles; 20°C,25.8 µM
same,Kd,TMV particles; 25°C,31 µM
same,Kd,TMV particles; 30°C,52.3 µM
same,Kd,TMV particles; from 20 to 30°C,25.8 to 52.3 µM
same,Kd,mutant TMV CP monomer,212 µM and ~212 µM
same,Kd,TMV RNA,16.5 µM
same,Kd,Mutant CP Discs; Kd to mutant CP discs,43.5 µM and ~43.5 µM
same,Kd,TMV CP discs [2]; Kd to CP discs,1.1 to 3.96 µM
same,Kd,TMV CP discs [2]; Kd to TMV CP discs,1.1 µM and 1.29 µM and 3.96 µM and ~1.1 µM
same,disassembly of wt CP four-layer aggregate discs,[5],completely disassembled into monomeric proteins
same,disassembly of discs into monomeric proteins,[6],completely disassembled into monomeric proteins
same,portion of the discs disassembled into monomeric proteins,[6],60%
same,visibility of four-layer aggregate discs by TEM,[6],invisible
same,mutated protein discs disassembled into protein monomers,mutated CP discs,approximately 35%
same,K (binding constant) to TMV CP discs,TMV CP discs [4],534000 ± 27500 M⁻¹
same,number of NNM molecules interacting with one CP disc,TMV CP discs [4],39 to 41 and 39–41
same,ΔG,TMV CP discs [4],−6.0
same,ΔH,TMV CP discs [4],17.2 kcal/mol
same,bands of the CP in western blot,TMV CP replication; 0.5 mg/mL NNM for 24 h,weak
same,bands of the CP in western blot,"TMV CP replication; 0.5 mg/mL NNM, after 72 h",not visible
same,bands of CP in western blot,"TMV CP replication; 500 μg/mL NNM, time not stated",weak
same,Curative activity against TMV,TMV; 100 μg/mL,29.8%
same,Curative activity against TMV,TMV; 500 μg/mL,60.0%
